Data as given in patent US4762848A, “1,3-thiazoles and their use as immunomodulators” (Hoechst Aktiengesellschaft, priority 1985, dated 1988).

Columns and labels:
Candida albicans = assay: Therapeutic treatment of chronic Candida albicans infection; format: in vivo, female Balb/c mice infected with Candida albicans; details: for Urine infected with C. albicans d19 / Urine infected with C. albicans d24 / Kidneys infected with C. albicans / Necrotic kidneys: days 3-15; for Urine infected with C. albicans d19: day 19; for Urine infected with C. albicans d24: day 24; for Kidneys infected with C. albicans / Necrotic kidneys: day 26
Protocol: Increase in the Resistance of Balb/c Mice to Infection with Candida albicans
(a) Therapeutic treatment
For the therapeutic treatment of chronic Candida albicans infection, female Balb/c mice (16/group) were infected intravenously with Candida albicans (2.5×10^5 cfu/mouse) (day 0). After the infection had taken place, the animals were treated intraperitoneally on 13 consecutive days (days 3-15) with the test substance obtained as in Example 7; the concentrations were 0.5, 2.0, 5.0, 10.0, 30.0 and 60.0 mg/kg. The control animals received administrations of physiological saline solution. Urine was collected from the animals on days 19 and 24, and the organism count was determined. On day 26, the animals were sacrificed, and the organism count and the necroses in the kidneys were determined.

DTH reaction (SRBC) = assay: Stimulation of the DTH reaction, relative to the compound from Example 7; format: in vivo, NMRI mice; details: 200 mg/kg, 1 × i.p. day 0; Example 7 = 100%
Protocol: Either 10^6 or 10^9 red blood cells from sheep were administered intravenously to each animal in groups of 5 female NMRI mice weighing 18-20 g. Sheep erythrocytes are regarded in immunology as a standard test substance (antigen) for the induction of cellular and humoral immune reactions. In particular, this test provides information about the functioning of the T-cell-dependent component (T-helper cells) of the immune system. The test substance obtained as in exemplary embodiment 7 ([2-(3-carboxy-1-propylthio)-4 -methyl-1,3-thiazol-5-yl]acetic acid) was administered intraperitoneally and perorally, respectively, […], each animal received 2×10^8 sheep erythrocytes injected into the underside of the foot and, 24 hours later, the swelling of the foot was measured. The foot swelling is induced by a skin reaction of the delayed type (delayed type hypersensitivity, DTH) and is, as is known to the expert, a measure of the cellular immune response (Collins, F. M. and Mackaness, G. B., J. Immunol. 101, 830-845, 1968). The results compiled in Table 1 illustraste that there is an increase in the cellular immune response owing to the administration of the subst nce obtained according to the invention, for example after imnunization with 10^6 or 10^9 sheep erythrocytes. An optimum stimulation can be observed in this experimental design on administration of 20-40 mg/kg test substance.
NMRI mice were treated with the substances according to the invention as described in experiment 1.
The DTH reaction was checked as a test to determine the immunostimulation.
It can be seen from the table that the DTH reaction in the animals pretreated with the test substances is more pronounced than in the corresponding control animals.

Cc1nc(SCCCC(=O)O)sc1CC(=O)O [Example 7, [2-(3-Carboxy-1-propylthio)-4-methyl-1,3-thiazol-5-yl]acetic acid]
Urine infected with C. albicans d19 (Candida albicans; 0.5 mg/kg i.p.): 0%
Urine infected with C. albicans d24 (Candida albicans; 0.5 mg/kg i.p.): 6%
Kidneys infected with C. albicans (Candida albicans; 0.5 mg/kg i.p.): 27%
Necrotic kidneys (Candida albicans; 0.5 mg/kg i.p.): 27%
Urine infected with C. albicans d19 (Candida albicans; 2.0 mg/kg i.p.): 6%
Urine infected with C. albicans d24 (Candida albicans; 2.0 mg/kg i.p.): 6%
Kidneys infected with C. albicans (Candida albicans; 2.0 mg/kg i.p.): 13%
Necrotic kidneys (Candida albicans; 2.0 mg/kg i.p.): 7%
Urine infected with C. albicans d19 (Candida albicans; 5.0 mg/kg i.p.): 0%
Urine infected with C. albicans d24 (Candida albicans; 5.0 mg/kg i.p.): 7%
Kidneys infected with C. albicans (Candida albicans; 5.0 mg/kg i.p.): 27%
Necrotic kidneys (Candida albicans; 5.0 mg/kg i.p.): 47%
Urine infected with C. albicans d19 (Candida albicans; 10.0 mg/kg i.p.): 7%
Urine infected with C. albicans d24 (Candida albicans; 10.0 mg/kg i.p.): 21%
Kidneys infected with C. albicans (Candida albicans; 10.0 mg/kg i.p.): 29%
Necrotic kidneys (Candida albicans; 10.0 mg/kg i.p.): 43%
Urine infected with C. albicans d19 (Candida albicans; 60.0 mg/kg i.p.): 13%
Urine infected with C. albicans d24 (Candida albicans; 60.0 mg/kg i.p.): 13%
Kidneys infected with C. albicans (Candida albicans; 60.0 mg/kg i.p.): 38%
Necrotic kidneys (Candida albicans; 60.0 mg/kg i.p.): 31%
dose for optimal action in chronic Candida albicans infection (Candida albicans; therapeutic i.p. treatment, mice): 0.5 to 5.0 mg/kg
DTH reaction (SRBC), relative activity (DTH reaction (SRBC)): 100%
